Source: ChEMBL document CHEMBL4673247, “Mycophenolic anilides as broad specificity inosine-5'-monophosphate dehydrogenase (IMPDH) inhibitors” (Bioorg Med Chem Lett, 2020)

Columns and labels:
[1] = target: T1, Inosine-5'-monophosphate dehydrogenase (Cryptosporidium parvum, UniProt Q8T6T2); experiment: Inhibition of Cryptosporidium parvum IMPDH expressed in Escherichia coli assessed as apparent inhibition constant using NAD as substrate by fluorescence assay; conditions: read-out: Ki(app)
T1 sequence (Q8T6T2 whole entry): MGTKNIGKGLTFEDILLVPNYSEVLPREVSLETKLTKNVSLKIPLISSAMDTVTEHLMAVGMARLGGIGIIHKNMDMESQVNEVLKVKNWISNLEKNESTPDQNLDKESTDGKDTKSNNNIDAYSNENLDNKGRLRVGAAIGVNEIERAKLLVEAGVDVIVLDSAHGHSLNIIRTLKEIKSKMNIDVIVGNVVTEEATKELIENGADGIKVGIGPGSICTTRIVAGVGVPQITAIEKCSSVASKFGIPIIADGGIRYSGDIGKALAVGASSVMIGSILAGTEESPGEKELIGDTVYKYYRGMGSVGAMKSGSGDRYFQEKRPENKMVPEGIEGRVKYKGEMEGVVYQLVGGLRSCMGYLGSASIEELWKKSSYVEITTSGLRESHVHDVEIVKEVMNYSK

[2] = target: Inosine-5'-monophosphate dehydrogenase 2 (Homo sapiens, UniProt P12268); experiment: Inhibition of human IMPDH2 expressed in Escherichia coli assessed as apparent inhibition constant using NAD as substrate by fluorescence assay; conditions: read-out: Ki(app)

Structure (SMILES)	Ki [1] [nM]	Ki [2] [nM]
COc1c(C)c2c(c(O)c1C/C=C(\C)CCC(=O)Nc1ccc(Cl)cc1)C(=O)OC2	42	130
COc1c(C)c2c(c(O)c1CCC(C)CCC(=O)Nc1ccc(Cl)c(C(F)(F)F)c1)C(=O)OC2 (stereo not given)	60	–
COc1c(C)c2c(c(O)c1C/C=C(\C)CCC(=O)Nc1ccc(Cl)c(C(F)(F)F)c1)C(=O)OC2	16	230
COc1c(C)c2c(c(O)c1C/C=C(\C)CCC(=O)N(C)c1ccc(Cl)cc1)C(=O)OC2	870	–
COc1c(C)c2c(c(O)c1C/C=C(\C)CCC(=O)Nc1ccc(C#N)cc1)C(=O)OC2	110	350
COc1c(C)c2c(c(O)c1C/C=C(\C)CCC(=O)Nc1ccc(Cl)c(Cl)c1)C(=O)OC2	41	340
COc1cc(NC(=O)CC/C(C)=C/Cc2c(O)c3c(c(C)c2OC)COC3=O)ccc1Cl	46	350
COc1c(C)c2c(c(O)c1C/C=C(\C)CCC(=O)Nc1ccc(C(F)(F)F)cc1)C(=O)OC2	–	400
COc1c(C)c2c(c(O)c1C/C=C(\C)CCC(=O)Nc1ccc(F)cc1)C(=O)OC2	–	270
COc1c(C)c2c(c(OC)c1C/C=C(\C)CCC(=O)Nc1ccc(Cl)c(C(F)(F)F)c1)C(=O)OC2	1700	–
